ChEMBL document CHEMBL6177918, “Generation and capture of naphthoquinonynes: a new frontier in the development of trypanocidal quinones via aryne chemistry” (RSC Med Chem, 2025)

Tested on: Trypanosoma cruzi
Assay: Trypanocidal activity against Trypanosoma cruzi trypomastigotes incubated for 24 hrs
Type: functional, organism-based
In the case of `CCOC(=O)/C=C/c1cccc2c1C(=O)C=CC2=O`, the IC50 is reported as 90.5 µM.
Work on `O=C(Cn1ccnc1[N+](=O)[O-])NCc1ccccc1` [BENZNIDAZOLE] yielded an IC50 of 6.8 µM.
For `O=C1C=CC(=O)c2c1cccc2-n1cc(-c2ccccc2)nn1`, the IC50 was 86.7 µM.
Molecule `O=C1C=CC(=O)c2c(O)cccc21` [JUGLONE] has an IC50 of 105 µM.
Work on `O=C1C=CC(=O)c2c([Se]c3ccccc3)cccc21` yielded an IC50 of 14.4 µM.

Tested on: Trypanosoma cruzi
Assay: Trypanocidal activity against bloodstream Trypanosoma cruzi trypomastigotes incubated for 24 hrs by light microscopy
Type: functional, organism-based
`O=C1C=CC(=O)c2cc(-n3cccn3)ccc21` gave an IC50 of 74.4 µM.
Work on `CC(=O)C12C=CC(O1)c1cc3c(cc12)C(=O)C=CC3=O` (stereo not drawn) yielded an IC50 of 64.4 µM.
In the case of `CCN(CC)C(=O)Oc1ccc2c(OC)ccc(OC)c2c1`, the IC50 is reported as over 800 µM.
`COCC12C=CC(O1)c1cc3c(cc12)C(=O)C=CC3=O` (stereo not drawn) gave an IC50 of 58.1 µM.
`CC(C)N(c1ccc2c(c1)C(=O)C=CC2=O)C(C)C` gave an IC50 of 18 µM.
`O=C(Cn1ccnc1[N+](=O)[O-])NCc1ccccc1` [BENZNIDAZOLE] gave an IC50 of 108 µM.
With `CC12C=CC(C)(O1)c1cc3c(cc12)C(=O)C=CC3=O` the IC50 was 40 µM.
`O=C1C=CC(=O)c2cc(OCCCCOc3ccccc3)ccc21` gave an IC50 of 362 µM.
For `N#Cc1ccc(Nc2ccc3c(c2)C(=O)C=CC3=O)cc1`, the IC50 was 94.8 µM.
`CCC12C=CC(O1)c1cc3c(cc12)C(=O)C=CC3=O` (stereo not drawn) gave an IC50 of 48.8 µM.
Work on `COc1ccc(OC)c2cc([Si](C)(C)C)c(O)cc12` yielded an IC50 of 69.3 µM.
With `O=C1C=CC(=O)c2cc(Nc3cccc4ccccc34)ccc21` the IC50 was 186 µM.
Molecule `COc1ccc(OC)c2cc(O)ccc12` has an IC50 of 379 µM.
`O=C1C=CC(=O)c2cc(-c3cnc4ccccc4c3)c(O)cc21` gave an IC50 of 46.6 µM.
In the case of `CC(=O)OCC12C=CC(O1)c1cc3c(cc12)C(=O)C=CC3=O` (stereo not drawn), the IC50 is reported as 27.3 µM.
`O=C1C=CC(=O)c2cc(Nc3ccccc3)ccc21` gave an IC50 of 39.2 µM.
`O=C1C=CC(=O)c2cc(-c3ccc(-c4ccccc4)nc3)c(O)cc21` showed an IC50 of 10.5 µM.
Work on `Cc1ccncc1-c1cc2c(cc1O)C(=O)C=CC2=O` yielded an IC50 of 181 µM.
`O=C1C=CC(=O)c2cc(N(c3ccccc3)c3ccccc3)ccc21` gave an IC50 of 134 µM.
`C=CCN(CC=C)c1ccc2c(c1)C(=O)C=CC2=O` gave an IC50 of 111 µM.
Work on `O=C1C=CC(=O)c2cc(-c3cccc(-c4ccccc4)n3)c(O)cc21` yielded an IC50 of 30.1 µM.
`CC(C)=C1C2C=CC1c1cc3c(cc12)C(=O)C=CC3=O` gave an IC50 of over 800 µM.
In the case of `CCN(CC)c1ccc2c(c1)C(=O)C=CC2=O`, the IC50 is reported as 96.2 µM.
Molecule `CN(c1ccccc1)c1ccc2c(c1)C(=O)C=CC2=O` has an IC50 of 29.5 µM.
In the case of `Cc1ccc(-c2cc3c(cc2O)C(=O)C=CC3=O)cn1`, the IC50 is reported as 24.2 µM.
`O=C1C=CC(=O)c2cc(N(C3CCCCC3)C3CCCCC3)ccc21` showed an IC50 of 54.2 µM.
`Cc1ccc(Nc2ccc3c(c2)C(=O)C=CC3=O)cc1` gave an IC50 of 138 µM.
With `COc1ccc(OC)c2ccccc12` the IC50 was over 500 µM.
`O=C1C=CC(=O)c2cc(N(Cc3ccccc3)Cc3ccccc3)ccc21` showed an IC50 of over 400 µM.
For `O=C1C=CC(=O)c2cc3c(cc21)C1C=CC3O1`, the IC50 was 10.1 µM.

Tested on: not listed separately
Assay: Stability of compound
Type: physicochemical
With `C[Si](C)(C)c1cc2c(cc1OS(=O)(=O)C(F)(F)C(F)(F)C(F)(F)C(F)(F)F)C(=O)C=CC2=O` the Stability was “Unstable”.

Tested on: not listed separately
Assay: Solubility of compound
Type: physicochemical
In the case of `COc1ccc(OC)c2cc([Si](C)(C)C)c(OS(=O)(=O)C(F)(F)C(F)(F)C(F)(F)C(F)(F)F)cc12`, the solubility is reported as “Insoluble”.
With `O=C1C=CC(=O)c2cc(-c3cccnc3)c(O)cc21` the solubility was “Insoluble”.
